What was measured:
[1] = tested on: prostate (P), seminal vesicle (SV), levator ani muscle (LA); test: Hershberger assay in orchiectomized rats; format: in vivo, Wistar male rats; conditions: doses as in Fig. 5, s.c. once a day, 12 days, castrated rats
Description: Fig. 5 Estimation of the androgenic and myotrophic activities of the indicated compounds obtained by the Hershberger Assay. Wistar male rats were orchiectomized (orchi) or sham-operated (intact) under ether anesthesia. After 14 days of endogenous hormonal decline, animals were randomly allocated to treatment and vehicle groups (n = 6). The numbers at the end of the abbreviations correspond to the dose in mg/kg body weight of the animal. Flutamide was given by gavage (10 mg/kg/day). […] Then the animals were treated once a day. The rats were sacrificed after completion of the 12-day treatment. Following removal, wet weights of the prostate (P), seminal vesicle (SV), levator ani muscle (LA) were determined. a Size and shape of P, SV and LA at the end of the treatment period. b, c, and d, influence of treatment with the compounds alone or together with the antiandrogen flutamide at the indicated doses on the weight of the organs (P, SV and LA) of the castrated animals. The mean wet weight is represented by the bars in the graphs. Values are means ± SEM; bars, SEM. *P ≤ 0.05, **P ≤ 0.01 vs. control
The Hershberger assay was performed according to the guidelines of the rodent Hershberger assay. Male Wistar rats (140 g, 5–6 weeks) were orchiectomized (orchi) or sham-operated (intact) under ether anesthesia. After 14 days of endogenous hormonal decline, animals were randomly allocated to treatment and vehicle groups (n = 6); orchi group = orchi rats receiving sham injections; intact group = sham-operated rats receiving sham injections; treatment group = orchi rats receiving drugs injections by subcutaneous. The antiandrogen flutamide given by gavage (10 mg/kg/day). Drugs were dissolved in ethanol and diluted in corn oil. The animals were treated once a day. Rats were sacrificed after completion of the 12-day treatment. Following removal, the wet weights of the P, SV, and LA muscle were determined. The data of tissue weights are presented as mean ± SEM.

[2] = tested on: AR protein in MCF-7 cells; test: AR protein expression by western blot and immunofluorescence; format: cell-based, human; conditions: incubation 3 days
Description: Fig. 3 Influence of indicated compounds on the expression of the AR. […] AR protein expression was analyzed by western blot as described in “Materials and methods”. b The densitometric evaluation of the bands is calculated by ImageJ. The numbers represent the densitometric value relative to untreated control. […] Typical image is shown. Scale bars: 10 μm
Total cell proteins were obtained from 70% confluent cell cultures. Protein extracts of whole cells (50 μg) were denatured, separated by SDS–PAGE and transferred to polyvinylidene fluoride membranes. After blocking with 3% bovine serum albumin in Tris-buffered saline-Tween, membranes were probed overnight at 4 °C. […] After incubation with the appropriate secondary antibody, results were detected using ECL detection reagents. Immunoreactive bands were quantified by densitometry using ImageJ software.
MCF-7 cells were seeded on 24-well plates (2 × 10^4 cells/well) with a poly-L-lysine-coated glass coverslip per well in 10% PRF–CT. […] Cells were visualized with a ×40 objective and a Qimaging digital camera coupled to an Olympus X71 fluorescence microscope using a red fluorescent protein filter.

C[C@]12CC[C@H]3[C@@H](CCC4=C(O)C(=O)CC[C@@]43C)[C@@H]1CC[C@@H]2O [4-OHT, 4-hydroxytestosterone]
myotrophic effect (LA) [1]: a little more myotrophic than 17-HEXE

C=C1C[C@H]2[C@@H]3CC[C@H](O)[C@@]3(C)CC[C@@H]2[C@@]2(C)C=CC(=O)C=C12 [17-HEXE, 17-hydroexemestane]
androgenic effect (P and SVs, size and wet weight) [1]: a little more androgenic than 4-OHT

C[C@]12CCC(=O)C[C@@H]1CC[C@@H]1[C@@H]2CC[C@]2(C)[C@@H](O)CC[C@@H]12 [DHT, dihydrotestosterone]
expression of the AR protein [2]: enhanced considerably
Cyclin D1 mRNA and protein (cyclin D1 in MCF-7 cells): decrease
